Key:
[1] = xn = mol fraction of the nth substance listed; details: 100.5 kPa, Liquid, Vibrating tube method
[2] = 100.5 kPa, Liquid, Vibrating tube method

CCc1n(C)c(C)c[n+]1CC.O=S(=O)([N-]S(=O)(=O)C(F)(F)F)C(F)(F)F + CCc1n(C)cc(C)[n+]1CC.O=S(=O)([N-]S(=O)(=O)C(F)(F)F)C(F)(F)F
[1], x1 = 0.735
Details | mass density [kg/m3]
293.15 K | 1431.7
303.15 K | 1422
313.15 K | 1412.6
323.15 K | 1403.1
333.15 K | 1393.8
343.15 K | 1384.6
353.15 K | 1375.3

CCCCCCn1cc[n+](C)c1C.O=S(=O)([N-]S(=O)(=O)C(F)(F)F)C(F)(F)F
[2]
Details | mass density [kg/m3]
293.15 K | 1362.2
303.15 K | 1353.1
313.15 K | 1344.1
323.15 K | 1335.2
333.15 K | 1326.3
343.15 K | 1317.5
353.15 K | 1308.7

CCC[n+]1ccn(C)c1C.O=S(=O)([N-]S(=O)(=O)C(F)(F)F)C(F)(F)F
[2]
Details | mass density [kg/m3]
293.15 K | 1460
303.15 K | 1450.3
313.15 K | 1440.7
323.15 K | 1431.2
333.15 K | 1421.7
343.15 K | 1412.4
353.15 K | 1403

CCn1cc[n+](C)c1C.O=S(=O)([N-]S(=O)(=O)C(F)(F)F)C(F)(F)F
[2]
Details | mass density [kg/m3]
293.15 K | 1496.4
303.15 K | 1486.7
313.15 K | 1476.9
323.15 K | 1467.3
333.15 K | 1457.7
343.15 K | 1448.2
353.15 K | 1438.8

CC[n+]1cc(C)n(C)c1.O=S(=O)([N-]S(=O)(=O)C(F)(F)F)C(F)(F)F + CC[n+]1cn(C)cc1C.O=S(=O)([N-]S(=O)(=O)C(F)(F)F)C(F)(F)F
[1], x1 = 0.602
Details | mass density [kg/m3]
293.15 K | 1483.2
303.15 K | 1473.3
313.15 K | 1463.4
323.15 K | 1453.6
333.15 K | 1443.9
343.15 K | 1434.2
353.15 K | 1424.6

CCCCCCn1cc(C)[n+](C)c1.O=S(=O)([N-]S(=O)(=O)C(F)(F)F)C(F)(F)F + CCCCCC[n+]1cn(C)cc1C.O=S(=O)([N-]S(=O)(=O)C(F)(F)F)C(F)(F)F
[1], x1 = 0.637
Details | mass density [kg/m3]
293.15 K | 1352.5
303.15 K | 1343.3
313.15 K | 1334.2
323.15 K | 1325.2
333.15 K | 1316.3
343.15 K | 1307.4
353.15 K | 1298.5

CCCCCCn1cc(C)[n+](C)c1CC.O=S(=O)([N-]S(=O)(=O)C(F)(F)F)C(F)(F)F + CCCCCC[n+]1c(C)cn(C)c1CC.O=S(=O)([N-]S(=O)(=O)C(F)(F)F)C(F)(F)F
[1], x1 = 0.813
Details | mass density [kg/m3]
293.15 K | 1325.2
303.15 K | 1316.2
313.15 K | 1307.3
323.15 K | 1298.5
333.15 K | 1289.7
343.15 K | 1281
353.15 K | 1272.3

CCCn1cc(C)[n+](C)c1.O=S(=O)([N-]S(=O)(=O)C(F)(F)F)C(F)(F)F + CCCn1c[n+](C)cc1C.O=S(=O)([N-]S(=O)(=O)C(F)(F)F)C(F)(F)F
[1], x1 = 0.629
Details | mass density [kg/m3]
293.15 K | 1445.4
303.15 K | 1435.6
313.15 K | 1425.9
323.15 K | 1416.3
333.15 K | 1406.9
343.15 K | 1397.3
353.15 K | 1387.9

CCCCn1cc[n+](C)c1C.O=S(=O)([N-]S(=O)(=O)C(F)(F)F)C(F)(F)F
[2]
Details | mass density [kg/m3]
293.15 K | 1424
303.15 K | 1414.6
313.15 K | 1405.3
323.15 K | 1396
333.15 K | 1386.9
343.15 K | 1377.8
353.15 K | 1368.7

CCCCn1cc(C)[n+](C)c1.O=S(=O)([N-]S(=O)(=O)C(F)(F)F)C(F)(F)F + CCCC[n+]1cn(C)cc1C.O=S(=O)([N-]S(=O)(=O)C(F)(F)F)C(F)(F)F
[1], x1 = 0.637
Details | mass density [kg/m3]
313.15 K | 1391.1
323.15 K | 1381
333.15 K | 1372.3
343.15 K | 1363.1
353.15 K | 1353.9

CCCCn1cc(C)[n+](C)c1CC.O=S(=O)([N-]S(=O)(=O)C(F)(F)F)C(F)(F)F + CCCCn1c(C)c[n+](C)c1CC.O=S(=O)([N-]S(=O)(=O)C(F)(F)F)C(F)(F)F
[1], x1 = 0.806
Details | mass density [kg/m3]
293.15 K | 1371.2
303.15 K | 1361.9
313.15 K | 1352.8
323.15 K | 1343.7
333.15 K | 1334.7
343.15 K | 1325.8
353.15 K | 1316.9

CCC[n+]1cc(C)n(C)c1CC.O=S(=O)([N-]S(=O)(=O)C(F)(F)F)C(F)(F)F + CCC[n+]1c(C)cn(C)c1CC.O=S(=O)([N-]S(=O)(=O)C(F)(F)F)C(F)(F)F
[1], x1 = 0.763
Details | mass density [kg/m3]
293.15 K | 1401.2
303.15 K | 1391.7
313.15 K | 1382.3
323.15 K | 1373
333.15 K | 1363.8
343.15 K | 1354.7
353.15 K | 1345.5
